BindingDB's records for doi:10.1021/jm960455s (Bristol-Myers Squibb Pharmaceutical Research Institute, 1997)
Non-standard residues stand in square brackets, D forms with d. Residues, ends and D or L forms follow the SMILES beside them. *: point of attachment. Phe(4-guanidino) = N=C(N)Nc1ccc(C[CH](N)C(=O)O)cc1; Phe(4-F) = N[CH](Cc1ccc(F)cc1)C(=O)O; 2Nal = N[C@@H](Cc1ccc2ccccc2c1)C(=O)O; Benzoyl(4-Cl) = O=C(c1ccc(Cl)cc1)*; X5 = O=C(c1cc2ccccc2[nH]1)*; βAla = NCCC(=O)O

How the values were obtained:
[1] = Effective concentration for stimulation of platelet aggregation
[2] = Concentration of compound required to inhibit agonist (SFLLRNP-NH2, at 3 uM) induced platelet aggregation by 50%
[3] = as above; remark: listed apart in the source

Compound | EC50 [1] [nM] | further results
COc1ccc(C[C@H](NC(=O)[C@@H](N)CO)C(=O)N[C@@H](CC(C)C)C(=O)N[C@@H](CC(C)C)C(=O)N[C@@H](CCCN=C(N)N)C(N)=O)cc1 | 720 | –
CC(C)CC(NC(=O)C(Cc1ccc(N=C(N)N)cc1)NC(=O)C(Cc1ccc(F)cc1)NC(=O)c1cc2ccccc2[nH]1)C(=O)NC(CCCNC(=N)N)C(N)=O (stereo not drawn) [1H-Indole-2-carboxylic acid [1-[1-[1-(1-carbamoyl-4-guanidino-butylcarbamoyl)-3-methyl-butylcarbamoyl]-2-(4-guanidino-phenyl)-ethylcarbamoyl]-2-(4-fluoro-phenyl)-ethyl]-amide] (X5-[Phe(4-F)][Phe(4-guanidino)]LR-NH2; configuration not given here) | 1800 | –
CC(=O)N(C(=O)C=Cc1cccc(Cl)c1)C(Cc1ccc(F)cc1)C(=O)NC(Cc1ccc(N=C(N)N)cc1)C(=O)NC(CC(C)C)C(=O)NC(CCCNC(=N)N)C(N)=O (stereo not drawn) [2-[2-[2-{Acetyl-[(E)-3-(3-chloro-phenyl)-acryloyl]-amino}-3-(4-fluoro-phenyl)-propionylamino]-3-(4-guanidino-phenyl)-propionylamino]-4-methyl-pentanoic acid (1-carbamoyl-4-guanidino-butyl)-amide] | – | IC50 [2]: 80 nM
CC(=O)N(C(=O)C=Cc1ccccc1)C(Cc1ccc(F)cc1)C(=O)NC(Cc1ccc(N)cc1)C(=O)NC(CC(C)C)C(=O)NC(CCCNC(=N)N)C(N)=O (stereo not drawn) [2-[2-[2-{Acetyl-[(E)-(3-phenyl-acryloyl)]-amino}-3-(4-fluoro-phenyl)-propionylamino]-3-(4-amino-phenyl)-propionylamino]-4-methyl-pentanoic acid (1-carbamoyl-4-guanidino-butyl)-amide] | 60000 | –
CC(=O)NCCC(=O)N[C@@H](Cc1ccc(F)cc1)C(=O)N[C@@H](Cc1ccc2ccccc2c1)C(=O)N[C@@H](CC(C)C)C(=O)N[C@@H](CCCN=C(N)N)C(N)=O [2-{(R)-2-[2-(3-Acetylamino-propionylamino)-3-(4-fluoro-phenyl)-propionylamino]-3-naphthalen-2-yl-propionylamino}-4-methyl-pentanoic acid (1-carbamoyl-4-guanidino-butyl)-amide] (Ac-[βAla][Phe(4-F)][2Nal]LR-NH2) | 270 | –
CC(=O)N(C(=O)C=Cc1ccccc1)C(Cc1ccc(F)cc1)C(=O)NC(=O)NCCCC(NC(=O)C(CC(C)C)NC(=O)C(N)CCCNC(=N)N)C(=O)O (stereo not drawn) [5-{3-[2-{Acetyl-[(E)-(3-phenyl-acryloyl)]-amino}-3-(4-fluoro-phenyl)-propionyl]-ureido}-2-[2-(2-amino-5-guanidino-pentanoylamino)-4-methyl-pentanoylamino]-pentanoic acid] | 67000 | –
CC(=O)N(C(=O)c1ccc(-c2ccccc2)cc1)C(Cc1ccc(F)cc1)C(=O)NC(Cc1ccc(N=C(N)N)cc1)C(=O)NC(CC(C)C)C(=O)NC(CCCNC(=N)N)C(N)=O (stereo not drawn) [Biphenyl-4-carboxylic acid acetyl-[1-[1-[1-(1-carbamoyl-4-guanidino-butylcarbamoyl)-3-methyl-butylcarbamoyl]-2-(4-guanidino-phenyl)-ethylcarbamoyl]-2-(4-fluoro-phenyl)-ethyl]-amide] | – | IC50 [3]: 430 nM
CC(C)CC(NC(=O)C(Cc1ccc(N=C(N)N)cc1)NC(=O)C(Cc1ccc(F)cc1)NC(=O)c1ccc(Cl)cc1)C(=O)NC(CCCNC(=N)N)C(N)=O (stereo not drawn) [N-[1-[1-[1-(1-Carbamoyl-4-guanidino-butylcarbamoyl)-3-methyl-butylcarbamoyl]-2-(4-guanidino-phenyl)-ethylcarbamoyl]-2-(4-fluoro-phenyl)-ethyl]-4-chloro-benzamide] ({Benzoyl(4-Cl)}-[Phe(4-F)][Phe(4-guanidino)]LR-NH2; configuration not given here) | 3700 | –
